According to patent US6900193B1, “Structural modification of 19-norprogesterone I: 17-α-substituted-11-β-substituted-4-aryl and 21-substituted 19-norpregnadienedione as new antiprogestational agents” (The United States of America as represented by the …, priority 1996, dated 2005):

Assays:
[1] = system: progesterone-induced endometrial proliferation; assay: AntiClauberg test; format: in vivo, rabbit; conditions: oral; for BIOLOGICAL ACTIVITY antiClauberg: Table 2, CDB-2914 = 100 (assigned); for antiClauberg / oral antiprogestational activity, in words: versus the standard 69B
Method: AntiClauberg Test (Clauberg, C., Zentr. Gynakol., 54:2757-2770 (1930)) Immature female rabbits of the New Zealand White breed (approx. 1 kg body weight) were maintained under standard laboratory conditions and received a subcutaneous injection of 5 μg estradiol in 10% ethanol/sesame oil daily for 6 consecutive days. Twenty-four hours after the last dose of estradiol (day 7) animals received progesterone by subcutaneous injection (0.8 mg/day) and the experimental compound in appropriate vehicle (usually 10% ethanol/sesame oil) orally or subcutaneously for five consecutive days. One group of rabbits received progesterone only. Twenty-four hours after the last dose all animals were sacrificed for removal of the uterus which was cleaned of all fat and connective tissue, weighed to the nearest 0.2 mg and placed in 10% neutral buffered formalin for subsequent histological processing. Five micron sections stained with hematoxylin and eosin (H&E) were evaluated microscopically for the degree of endometrial glandular proliferation according to the method of McPhail (McPhail, supra). The percent inhibition of endometrial proliferation at each dose level of the experimental compound was derived by comparison with the progesterone-stimulated animals alone.

[2] = molecular target: T1, glucocorticoid receptor (estrogen-primed rabbit thymus) (Oryctolagus cuniculus, UniProt P59667); assay: Relative binding affinity, glucocorticoid receptor; conditions: Table 2; estrogen-primed rabbit thymus; dexamethasone = 100%
T1 construct: preparation of cytosols for the progesterone and glucocorticoid receptor assays; from tissue; host or cells: thymus of estradiol-primed immature female New Zealand White rabbits (cytosol)
T1 sequence (P59667 1-772): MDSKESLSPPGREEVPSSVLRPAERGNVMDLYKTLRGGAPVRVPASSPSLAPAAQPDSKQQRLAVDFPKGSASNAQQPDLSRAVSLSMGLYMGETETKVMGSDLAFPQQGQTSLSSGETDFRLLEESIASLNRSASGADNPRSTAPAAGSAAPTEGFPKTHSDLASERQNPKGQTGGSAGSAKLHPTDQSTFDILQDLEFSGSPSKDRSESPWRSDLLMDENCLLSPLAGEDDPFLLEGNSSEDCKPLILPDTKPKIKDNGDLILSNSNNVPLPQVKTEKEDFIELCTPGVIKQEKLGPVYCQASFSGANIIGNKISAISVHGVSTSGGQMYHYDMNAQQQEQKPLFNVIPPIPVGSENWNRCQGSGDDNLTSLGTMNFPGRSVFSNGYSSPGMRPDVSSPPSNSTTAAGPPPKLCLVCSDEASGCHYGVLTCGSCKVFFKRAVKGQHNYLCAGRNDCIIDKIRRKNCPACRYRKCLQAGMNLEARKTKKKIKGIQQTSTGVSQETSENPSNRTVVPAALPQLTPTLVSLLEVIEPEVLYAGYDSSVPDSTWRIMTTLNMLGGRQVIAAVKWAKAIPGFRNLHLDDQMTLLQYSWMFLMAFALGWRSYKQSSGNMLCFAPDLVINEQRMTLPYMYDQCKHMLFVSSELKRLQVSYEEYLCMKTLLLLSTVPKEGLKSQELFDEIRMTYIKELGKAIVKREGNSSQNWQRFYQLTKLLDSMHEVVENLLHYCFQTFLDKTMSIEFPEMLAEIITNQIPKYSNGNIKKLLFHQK
Method: (§1) Relative Binding Affinities for the Progesterone and Glucocorticoid Receptors
(§2) Uteri and thymus glands were obtained from estradiol-primed immature female rabbits of the New Zealand White strain for preparation of cytosols for the progesterone and glucocorticoid receptor assays, respectively. Tissues were excised and immediately placed in ice cold TEGDM buffer (10 mM Tris, pH 7.4; 1.5 mM EDTA; 10% glycerol vol/vol/; 1 mM dithiothreitol [DTT]; and 20 mM sodium molybdate). The tissues were dissected free of connective tissue and fat, weighed and minced finely. Minced tissues were homogenized in 3 volumes TEGDM/gm with four 10 second bursts of a VirTis Cyclone set at half maximum speed with a 30 second cooling period (in ice) between bursts. Homogenates were centrifuged at 109,663 g at 4° C. for 1 hour to yield the soluble cytosol fiction. Aliquots of cytosol were snap frozen and stored at −75° C.
(§3) All binding assays were carried out at 2-6° C. for 16-18 hours. The following radioactive ligands were used: [1,2-^3H(N)]-progesterone (50.0 Ci/mmole) for the progesterone receptor (PR). […] For the progesterone receptor RBA assays 0.02 ml uterine cytosol or TEDGM buffer, 0.05 ml of various concentrations of test compounds or progesterone, 0.13 ml TEGDM buffer and 0.05 ml [^3H]-progesterone were added to duplicate tubes. For the glucocorticoid receptor RBA assays 0.1 ml thymus cytosol or TEDGM buffer, 0.05 ml of various concentrations of test compounds or dexamethasone, 0.05 ml TEGDM buffer and 0.05 ml [3H]-dexamethasone were added to duplicate tubes. For the estrogen receptor RBA assays 0.05 ml uterine cytosol, 0.1 ml TEGDM buffer, 0.05 ml of various concentrations of test compounds or estradiol and 0.05 ml [^3H]-estradiol were added to duplicate tubes. The concentrations of the test compounds, progesterone, dexamethasone and estradiol ranged from 0.05 to 100 nM and the concentrations of the competitors ranged from 0.5 to 500 nM. Total binding was measured at radioligand concentrations of 3.5 nM and nonspecific binding was measured in the presence of a 200-fold excess of unlabeled progesterone (PR), dexamethasone (GR) or diethylstilbestrol (ER), respectively.
(§4) In all incubations bound and free ligand were separated using dextra-coated charcoal (DCC). A 0.1 ml aliquot of DCC (0.5% charcoal/0.05% Dextran T-70) was added to each tube. The tubes were vortexed and incubated on ice for 10 minutes. Five-tenths ml TEG buffer (without DTT or molybdate) was then added to all tubes to improve supernatant recovery following centrifugation. The charcoal was pelleted by centrifugation at 2,100 g for 15 minutes at 4° C. The supernatants containing the [^3H]-steroid receptor complexes were decanted into vials containing 4 ml Optifluor (Packard Instrument Co.), vortexed, equilibrated in a liquid scintillation counter for 30 minutes and then counted for 2 minutes. This provided the quantity of receptor bound [^3H]-steroid at each competitor concentration.

[3] = molecular target: T2, progesterone receptor (estrogen-primed rabbit uterus) (Oryctolagus cuniculus, UniProt P06186); assay: Relative binding affinity, progesterone receptor; conditions: for BINDING AFFINITY Progester: Table 2, estrogen-primed rabbit uterus, progesterone = 100%; for binding affinities compared with the standard, compound 69B: progesterone receptor implied (rabbit or human isoform A not specified)
T2 construct: preparation of cytosols for the progesterone and glucocorticoid receptor assays; from tissue; host or cells: uterus of estradiol-primed immature female New Zealand White rabbits (cytosol)
T2 sequence (P06186 1-930): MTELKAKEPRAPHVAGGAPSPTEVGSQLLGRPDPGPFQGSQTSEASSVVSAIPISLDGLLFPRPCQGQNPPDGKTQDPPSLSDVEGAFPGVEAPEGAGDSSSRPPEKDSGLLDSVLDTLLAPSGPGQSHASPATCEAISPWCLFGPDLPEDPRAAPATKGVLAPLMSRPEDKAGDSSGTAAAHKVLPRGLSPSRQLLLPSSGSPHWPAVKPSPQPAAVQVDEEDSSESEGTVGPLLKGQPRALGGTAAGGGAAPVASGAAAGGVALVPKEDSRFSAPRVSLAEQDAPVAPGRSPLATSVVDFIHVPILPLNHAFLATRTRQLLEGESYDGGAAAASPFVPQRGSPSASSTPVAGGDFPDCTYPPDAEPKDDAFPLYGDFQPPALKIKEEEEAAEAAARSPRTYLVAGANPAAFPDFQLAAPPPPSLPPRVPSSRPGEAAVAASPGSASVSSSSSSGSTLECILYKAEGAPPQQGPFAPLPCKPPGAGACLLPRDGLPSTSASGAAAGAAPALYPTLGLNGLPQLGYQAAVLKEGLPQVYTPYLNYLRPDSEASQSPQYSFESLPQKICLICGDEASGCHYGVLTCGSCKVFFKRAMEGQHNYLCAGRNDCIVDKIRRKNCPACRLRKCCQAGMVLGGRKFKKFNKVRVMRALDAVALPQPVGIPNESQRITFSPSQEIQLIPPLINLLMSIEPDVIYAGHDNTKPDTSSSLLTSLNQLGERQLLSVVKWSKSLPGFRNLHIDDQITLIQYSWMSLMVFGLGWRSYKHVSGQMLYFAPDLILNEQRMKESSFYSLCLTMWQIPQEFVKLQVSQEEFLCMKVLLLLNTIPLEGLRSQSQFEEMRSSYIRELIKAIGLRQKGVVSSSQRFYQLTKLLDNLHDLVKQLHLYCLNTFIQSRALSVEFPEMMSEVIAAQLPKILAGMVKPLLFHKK
Method: as §1, §2, §3, §4

Row | Compound | BIOLOGICAL ACTIVITY antiClauberg [1] | BINDING AFFINITY Glucocortic [2] | BINDING AFFINITY Progester [3] | binding affinities compared with the standard, compound 69B [3] | antiClauberg / oral antiprogestational activity, in words [1]
1 | CC(=O)C1(OC=O)CCC2C3CCC4=CC(=O)CCC4=C3C(c3ccc(N(C)C)cc3)CC21C (stereo not drawn) [Compound 69A, 17α-formyloxy-11β-[4-(N,N-dimethylamino)phenyl]-19-norpregna-4,9-diene-3,20-dione] | 97 | 30% | 164% | binding affinities greater than that observed for the standard | –
2 | CC(=O)O[C@]1(C(C)=O)CC[C@H]2[C@@H]3CCC4=CC(=O)CCC4=C3[C@@H](c3ccc(N4CCOCC4)cc3)C[C@@]21C [Compound 72, 17α-Acetoxy-11β-[4-(N-Morpholino)phenyl]-19-norpregna-4,9-diene-3,20-dione] | 35 | 110% | 109% | binding affinities greater than that observed for the standard | –
3 | CSc1ccc([C@H]2C[C@@]3(C)[C@@H](CC[C@]3(OC(C)=O)C(C)=O)[C@@H]3CCC4=CC(=O)CCC4=C32)cc1 [Compound 74] | <10 | 32% | 131% | – | –
4 | COCC1(C(C)=O)CCC2C3CCC4=CC(=O)CCC4=C3C(c3ccc(N(C)C)cc3)CC21C (stereo not drawn) [Compound 91, 17α-Methoxymethyl-11β-[4-(N,N-methylamino)phenyl]-19-norpregna-4,9-diene-3,20-dione] | inactive | 59% | 171% | binding affinities greater than that observed for the standard | –
5 | COC1(C(C)=O)CCC2C3CCC4=CC(=O)CCC4=C3C(c3ccc(N(C)C)cc3)CC21C (stereo not drawn) [Compound 97a, 17α-Methoxy-11β-[4-(N,N-dimethylamino)phenyl]-19-norpregna-4,9-diene-3,20-dione] | 110 | 52% | 120% | binding affinities greater than that observed for the standard | greater activity than the standard
6 | COC1(C(C)=O)CCC2C3CCC4=CC(=O)CCC4=C3C(c3ccc(N4CCCCC4)cc3)CC21C (stereo not drawn) [Compound 97b, 17α-Methoxy-1-[4-(piperidino)phenyl]-19-norpregna-4,9-diene-3,20-dione] | 99 | 38% | 47% | – | –
7 | COCC(=O)C1(OC)CCC2C3CCC4=CC(=O)CCC4=C3C(c3ccc(N4CCCCC4)cc3)CC21C (stereo not drawn) [Compound 113c, 17α,21-Dimethoxy-11β-[4-(N-piperidino)phenyl]-19-norpregna-4,9-diene-3,20-dione] | 70 | 45% | 63% | – | –
8 | COCC(=O)C1(OC(C)=O)CCC2C3CCC4=CC(=O)CCC4=C3C(c3ccc(C(C)=O)cc3)CC21C (stereo not drawn) [Compound 123b, 17α-Acetoxy-11β-(4-acetylphenyl)-21-methoxy-19-norpregna-4,9-diene-3,20-dione] | 77 | 45% | 64% | – | –
9 | CCC(=O)OCC(=O)[C@@]1(OC(C)=O)CCC2C3CCC4=CC(=O)CCC4=C3C(c3ccc(N(C)C)cc3)C[C@@]21C (stereo partly drawn) [Compound 126a, 17α-Acetoxy-11β-[4-(N,N-dimethylamino)phenyl]-21-propionyloxy-19-norpregna-4,9-diene-3,20-dione] | 170 | 43% | 95% | – | greater activity than the standard
10 | COCC(=O)OCC(=O)[C@@]1(OC(C)=O)CC[C@H]2[C@@H]3CCC4=CC(=O)CCC4=C3[C@@H](c3ccc(N(C)C)cc3)C[C@@]21C [Compound 126b] | 125 | 15% | 76% | – | greater activity than the standard
